Experimental data published in ChEMBL document CHEMBL1201862, “PubChem BioAssay data set” (2004).
Activity calls are given as the source filed them.

How the values were obtained:
cells = format: functional
[1] = biological target: T1, Tyrosine-protein phosphatase non-receptor type 7 (Homo sapiens, UniProt P35236); test: inhibitors of human HePTP phosphatase, […], biochemical, absorbance, leukemia target (AID 521); format: functional
T1 sequence (P35236 whole entry): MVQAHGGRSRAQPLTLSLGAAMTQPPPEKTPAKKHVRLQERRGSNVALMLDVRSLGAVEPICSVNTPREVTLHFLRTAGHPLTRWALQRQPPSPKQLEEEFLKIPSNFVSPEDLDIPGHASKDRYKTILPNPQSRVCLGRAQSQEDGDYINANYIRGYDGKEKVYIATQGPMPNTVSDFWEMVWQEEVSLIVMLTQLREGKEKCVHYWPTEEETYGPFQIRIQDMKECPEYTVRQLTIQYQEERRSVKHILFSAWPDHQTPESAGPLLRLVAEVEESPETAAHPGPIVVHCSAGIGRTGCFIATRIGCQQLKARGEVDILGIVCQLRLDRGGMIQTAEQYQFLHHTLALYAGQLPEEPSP

Prothrombin = Prothrombin (Homo sapiens, UniProt P00734); test: Thrombin 1536 HTS Dose Response Confirmation. [Related pubchem assays: 1046 (Thrombin 1536 HTS; hits were confirmed in this assay)]; format: functional
fMet-Leu-Phe receptor = biological target: T2, fMet-Leu-Phe receptor (Homo sapiens, UniProt P21462); test: FPR ligands, dose response (AID 519); format: functional
T2 sequence (P21462 whole entry): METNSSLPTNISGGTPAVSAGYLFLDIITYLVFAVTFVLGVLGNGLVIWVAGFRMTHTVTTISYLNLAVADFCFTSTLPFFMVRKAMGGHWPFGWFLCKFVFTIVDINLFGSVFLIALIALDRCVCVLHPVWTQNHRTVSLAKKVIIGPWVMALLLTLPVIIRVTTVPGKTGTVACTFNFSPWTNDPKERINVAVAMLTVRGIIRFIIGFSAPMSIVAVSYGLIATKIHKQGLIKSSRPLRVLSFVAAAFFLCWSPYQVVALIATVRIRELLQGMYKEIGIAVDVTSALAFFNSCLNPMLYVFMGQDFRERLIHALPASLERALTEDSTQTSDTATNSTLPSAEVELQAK

[2] = ADAM10 inhibitors, peptide cleavage, dose response, biochemical, QFRET (AID 743254);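 note: ADAM10 enzyme with the DM2 quenched FRET peptide as substrate; EDANS fluorescence gain as the protease cuts the substrate; inhibitor potency against ADAM10 proteolytic activity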
[3] = biological target: Disintegrin and metalloproteinase domain-containing protein 17 (Homo sapiens, UniProt P78536); test: ADAM17 protease inhibitors, dose response, counter-screen for ADAM10 exosite inhibitor project, biochemical, quenched FRET substrate (AID 743253)
[4] = A375 melanoma cell viability loss, dose response, counter-screen for MITF inhibitor project, CellTiter-Glo luminescence, dry powder, set 4 (AID 624364); format: functional, cell-based; conditions: A-375;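 note: A375 melanoma cells are MITF independent so this is a counter screen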
Cytochrome P450 2C9 = Cytochrome P450 2C9 (Homo sapiens, UniProt P11712)
[5] = biological target: Eukaryotic translation initiation factor 4E (Mus musculus, UniProt P63073); test: eIF4E–eIF4G protein interaction inhibitors, dose response, biochemical, TR-FRET (AID 855); format: functional;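 note: potency for disrupting eIF4E binding to eIF4GI seen as loss of FRET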
[6] = P. falciparum Dd2 growth inhibitors, dose response, SYBR Green, cherry-picked samples (AID 1159567); format: functional, cell-based
[7] = HEp-2 cell cytotoxicity, dose response, cytotoxicity control for RSV inhibitor project, HTS (AID 2410); format: functional; conditions: human respiratory syncytial virus

Chain of Disintegrin and metalloproteinase domain-containing protein 17 (P78536 whole entry, the tested form may be a part): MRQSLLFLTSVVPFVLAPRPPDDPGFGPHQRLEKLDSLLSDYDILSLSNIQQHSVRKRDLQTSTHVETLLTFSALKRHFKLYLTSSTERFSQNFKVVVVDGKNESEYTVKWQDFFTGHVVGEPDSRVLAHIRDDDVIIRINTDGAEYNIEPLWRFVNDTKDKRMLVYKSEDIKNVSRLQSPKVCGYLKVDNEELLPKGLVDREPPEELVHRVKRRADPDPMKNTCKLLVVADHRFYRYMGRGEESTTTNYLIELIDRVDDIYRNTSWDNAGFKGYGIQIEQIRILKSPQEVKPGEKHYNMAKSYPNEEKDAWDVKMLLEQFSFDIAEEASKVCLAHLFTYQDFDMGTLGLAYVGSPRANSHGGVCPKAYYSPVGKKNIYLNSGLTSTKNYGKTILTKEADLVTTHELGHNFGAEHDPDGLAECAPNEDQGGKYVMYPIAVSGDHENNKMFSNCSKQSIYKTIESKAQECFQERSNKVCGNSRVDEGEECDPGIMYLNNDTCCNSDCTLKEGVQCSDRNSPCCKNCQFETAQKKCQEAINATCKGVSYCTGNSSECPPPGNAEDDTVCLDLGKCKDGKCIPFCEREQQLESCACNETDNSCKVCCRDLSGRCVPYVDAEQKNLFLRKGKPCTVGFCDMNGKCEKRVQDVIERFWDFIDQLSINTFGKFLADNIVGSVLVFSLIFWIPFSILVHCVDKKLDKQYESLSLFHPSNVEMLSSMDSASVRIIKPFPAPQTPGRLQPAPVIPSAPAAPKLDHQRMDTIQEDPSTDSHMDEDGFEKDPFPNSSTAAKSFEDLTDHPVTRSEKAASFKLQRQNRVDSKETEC
Chain of Cytochrome P450 2C9 (P11712 whole entry): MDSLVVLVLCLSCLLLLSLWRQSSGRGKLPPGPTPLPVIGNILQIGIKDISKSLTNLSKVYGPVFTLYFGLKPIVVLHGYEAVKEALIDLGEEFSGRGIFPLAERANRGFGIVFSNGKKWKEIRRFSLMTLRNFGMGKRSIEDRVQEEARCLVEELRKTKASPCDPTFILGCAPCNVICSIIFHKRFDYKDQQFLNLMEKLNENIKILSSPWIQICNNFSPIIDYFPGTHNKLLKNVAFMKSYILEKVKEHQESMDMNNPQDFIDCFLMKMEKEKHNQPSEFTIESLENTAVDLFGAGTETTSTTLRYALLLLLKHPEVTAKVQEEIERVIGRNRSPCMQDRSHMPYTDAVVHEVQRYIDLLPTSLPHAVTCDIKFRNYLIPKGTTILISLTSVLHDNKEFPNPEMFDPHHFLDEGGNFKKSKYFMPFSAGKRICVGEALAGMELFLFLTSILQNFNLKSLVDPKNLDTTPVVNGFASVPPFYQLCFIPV
Chain of Eukaryotic translation initiation factor 4E (P63073 whole entry): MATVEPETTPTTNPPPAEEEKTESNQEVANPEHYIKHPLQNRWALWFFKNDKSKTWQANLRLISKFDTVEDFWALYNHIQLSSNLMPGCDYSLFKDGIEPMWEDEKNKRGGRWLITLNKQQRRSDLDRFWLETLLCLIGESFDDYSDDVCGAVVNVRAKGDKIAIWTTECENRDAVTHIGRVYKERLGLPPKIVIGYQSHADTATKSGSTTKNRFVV

## CCOc1cccc2cc(C(=O)Nc3nccs3)c(=O)oc12
cells
  IC50: 1.31 µM (active)
[1]
  IC50: > 100 µM (not active)

## COc1ccccc1CN(CC(=O)NCc1ccco1)C(=O)CNS(=O)(=O)c1ccc(C)cc1
Prothrombin
  IC50: 7.63 µM (active)

## COCCCN1C(=O)C(O)=C(C(=O)c2ccc3c(c2)CC(C)O3)C1c1cccnc1 (stereo not drawn)
fMet-Leu-Phe receptor
  Ki: > 66.7 µM (inactive)

## CCC(C)[C@H](NC(=O)NCC1CCCO1)C(=O)OC (stereo partly drawn)
[1]
  IC50: > 100 µM (not active)

## CCOc1ccc(CCN2C(=S)N([C@@H](Cc3ccc(O)cc3)CN3CCC[C@@H]3CN3C(=S)NC[C@@H]3CC(C)C)C[C@@H]2Cc2ccccc2)cc1
[2]
  IC50: > 69.5 µM (inactive)
[3]
  IC50: > 69.5 µM (inactive)

## OC(c1ccccc1)(c1nc(-c2cccc(C(F)(F)F)c2)cs1)C(F)(F)F (stereo not drawn)
[2]
  IC50: 11.2 µM (inactive)
[3]
  IC50: > 69.5 µM (inactive)

## CCc1nc2ccc(C(=O)Nc3cccc(OC)c3)cn2c1N(CC)Cc1cccc(Br)c1
[2]
  IC50: > 69.5 µM (inactive)
[3]
  IC50: > 69.5 µM (inactive)

## O=C1C(NS(=O)(=O)c2ccc(Br)cc2)=C(N2CCN(c3ccccc3)CC2)C(=O)c2ccccc21
[4]
  AC50: > 70 µM (inactive)

## COc1ccc(/C=N/n2cnc3c4cc(Br)ccc4nc-3c2O)cc1CN1CCOCC1
Cytochrome P450 2C9
  AC50: 3.55 µM (inconclusive)
[5]
  IC50: > 64 µM (inactive)

## O=C(C[C@H]1CC[C@@H]2[C@H](COC[C@@H](O)CN2C(=O)Nc2ccc3c(c2)OCO3)O1)N1CCN(c2ccccc2)CC1
[6]
  AC50: 22.8 µM (active)

## CCOC(=O)C1=C(C)N(Cc2ccccc2)C(=O)NC1c1ccccc1OS(=O)(=O)c1ccccc1[N+](=O)[O-] (stereo not drawn)
[7]
  CC50: 5.56 µM (active)
[2]
  IC50: > 69.5 µM (inactive)
[3]
  IC50: > 69.5 µM (inactive)
